Tests used:
Test in all cases: relative viability (nuclei count vs DMSO), 5 days (fraction); higher = more cells survive
[1] = compound: CC1(COc2ccc3c(c2)ncn3-c2ccc3cccc(N4CCC(N)CC4)c3n2)COC1 [Crenolanib] + O=C(CCCCCCC(=O)Nc1ccccc1)NO [Vorinostat] (partner 1 µM)
In short: (§1)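 For relative viability, nuclei counts in treated wells were divided by those in vehicle wells. Lung cancer cell lines had been pin-tool dosed in 1536-well plates the day after seeding and cultured for 5 days, then fixed and stained in one step (final 0.05% Triton X-100, 1% formaldehyde, 1 ug/ml Hoechst) and imaged at 4×. Doses were one drug alone or a fixed anchor-drug dose plus five library-drug doses (not always all listed) in √10 steps, and values are duplicate-plate medians.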

[2] = compound: CC1(COc2ccc3c(c2)ncn3-c2ccc3cccc(N4CCC(N)CC4)c3n2)COC1 [Crenolanib] + C[C@]1(O)C[C@@H](c2nc(-c3ccc4ccc(-c5ccccc5)nc4c3)c3c(N)nccn32)C1 [Linsitinib] (partner 1 µM)
In short: as §1

[3] = compound: CC1(COc2ccc3c(c2)ncn3-c2ccc3cccc(N4CCC(N)CC4)c3n2)COC1 [Crenolanib] + N=C(N)NC(=N)NCCc1ccccc1 [Phenformin] (partner 250 µM)
In short: as §1

[4] = compound: O=C1NC(=O)[C@@H](c2cn3c4c(cccc24)CCC3)[C@@H]1c1c[nH]c2ccccc12 [Tivantinib] + Cc1nc(NC(=O)N2CCC[C@H]2C(N)=O)sc1-c1ccnc(C(C)(C)C(F)(F)F)c1 [Alpelisib] (partner 2 µM)
In short: as §1

In the case of UMC-11, the relative viability ([1]; first compound 0.01 µM) is reported as 0.383, the relative viability ([1]; first compound 0.03162 µM) is reported as 0.453 and the relative viability ([1]; first compound 0.1 µM) is reported as 0.389. The relative viability ([1]; first compound 0.3162 µM) was 0.363, the relative viability ([1]; first compound 1 µM) was 0.374 and the relative viability ([2]; first compound 0.01 µM) was 1.01. The relative viability ([2]; first compound 0.03162 µM) was 0.997, the relative viability ([2]; first compound 0.1 µM) was 0.978 and the relative viability ([2]; first compound 0.3162 µM) was 1.14. The relative viability ([2]; first compound 1 µM) was 0.952, the relative viability ([3]; first compound 0.01 µM) was 0.346 and the relative viability ([3]; first compound 0.03162 µM) was 0.323. For the same cell line, the relative viability ([3]; first compound 0.1 µM) was 0.325, the relative viability ([3]; first compound 0.3162 µM) was 0.329 and the relative viability ([3]; first compound 1 µM) was 0.269. For the same cell line, the relative viability ([4]; first compound 0.01 µM) was 0.961, the relative viability ([4]; first compound 0.03162 µM) was 0.939 and the relative viability ([4]; first compound 0.1 µM) was 0.876. For the same cell line, the relative viability ([4]; first compound 0.3162 µM) was 0.939.
